From patent publication US8163901B2, “Amide derivatives as ion-channel ligands and pharmaceutical compositions and methods of using the same” (Evotec AG, priority 2008, dated 2012)

Tests used:
Type in all cases: cell-based
hVR1 [1] = target: T1, hVR1 (Homo sapiens, UniProt Q8NER1); assay: Calcium uptake assay (FLIPR), inhibition of capsaicin-induced calcium influx
T1 construct: R710-07 (T-REx host cell line); host or cells: T-REx System cell line, called 'human keratinocyte cell line' and 'HEK 293 cells'
T1 sequence (Q8NER1 whole entry): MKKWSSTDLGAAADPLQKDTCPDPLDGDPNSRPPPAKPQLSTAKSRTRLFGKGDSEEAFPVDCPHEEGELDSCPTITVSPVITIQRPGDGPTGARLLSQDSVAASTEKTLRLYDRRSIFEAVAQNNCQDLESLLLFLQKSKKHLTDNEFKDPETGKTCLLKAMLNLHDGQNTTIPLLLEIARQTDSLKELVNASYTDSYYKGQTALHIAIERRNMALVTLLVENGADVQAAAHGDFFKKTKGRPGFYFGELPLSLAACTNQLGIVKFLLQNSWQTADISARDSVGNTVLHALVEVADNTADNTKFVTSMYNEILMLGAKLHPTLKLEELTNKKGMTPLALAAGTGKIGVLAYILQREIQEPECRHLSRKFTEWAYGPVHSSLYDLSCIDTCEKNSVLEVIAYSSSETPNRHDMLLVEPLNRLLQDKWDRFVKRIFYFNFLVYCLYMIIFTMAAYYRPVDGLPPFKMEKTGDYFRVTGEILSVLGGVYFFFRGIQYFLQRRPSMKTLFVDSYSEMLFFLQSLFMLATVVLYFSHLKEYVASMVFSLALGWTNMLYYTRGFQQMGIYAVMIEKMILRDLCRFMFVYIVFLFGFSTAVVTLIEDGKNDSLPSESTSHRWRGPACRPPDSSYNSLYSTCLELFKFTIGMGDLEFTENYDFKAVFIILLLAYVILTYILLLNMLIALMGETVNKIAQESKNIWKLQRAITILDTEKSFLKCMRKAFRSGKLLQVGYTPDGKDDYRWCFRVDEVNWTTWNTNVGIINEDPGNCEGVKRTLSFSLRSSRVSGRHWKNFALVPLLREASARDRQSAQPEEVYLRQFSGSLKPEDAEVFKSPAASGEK
Method: (§1) Functional activity of compounds against the VR1 receptor was determined by measuring changes in intracellular calcium in HEK 293 cells expressing hVR1. Compounds were examined for their ability to inhibit agonist-induced calcium influx. Relative levels of [Ca^2+] were monitored in a 96-well format using a calcium-sensitive fluorescence dye and a FLIPR TETRA, Molecular Devices.
(§2) Cells that express high levels of VR1 were obtained by generation of a cell line from human keratinocytes with heterologous expression of VR1 under control of an inducible promoter. Specifically, cells expressing human VR1 under the control of the human cytomegalovirus immediate-early (CMV) promoter and two tetracycline operator 2 (TetO2) sites were made using the T-REx System (Invitrogen, Carlsbad, Calif., USA). Details and methods concerning this system are published (Hum. Gene Ther. 9, pp. 1939-1950, 1998; Annu. Rev. Microbiol. 48, pp. 345-369, 1994; Mol. Biol. 169, pp. 707-'721, 1983). Human VR1 was subcloned into the T-REx System pcDNA5/TO vector (Invitrogen Cat# V1033-20) which was transfected into the T-REx System human keratinocyte cell line (Invitrogen Cat# R710-07) from which a stable cell line was established which expresses VR1 after induction by exposure to tetracycline or doxycycline (Hum. Gene Ther. 9, pp. 1939-1950, 1998; instructions that come with purchase of products noted above). Cells were maintained in a CO2 incubator (5% CO2) at 37° C. in culture medium containing DMEM with phenol red (Mediatech Cat #: 15-017-CV) supplemented with 10% heat-inactivated Fetal Bovine Serum, 5% Penicillin-streptomycin (Mediatech Cat #: 30-002-CI), 5% Glutamax® (L-Alanyl-L-Glutamine, Mediatech Cat #: 25-015-CI), 200 μg/ml hygromycin (Mediatech #:30-240-CR), 0.5 μg/ml blasticidin (Invitrogen #46-1120)).
(§3) For assay preparation, cells expressing human VR1 as described above were plated in 96-well plates (Becton Dickinson [BD] poly-D-lysine coated 96-well plates, cat #356692) at 55,000 cells per well in culture media (described above) that also contained 1 ug/ml doxycycline. Plated cells were then placed in an incubator (5% CO2) and incubated for 20-26 hours at 37° C., until the cells had grown to near confluency. Media was then aspirated from cells and 50 uL of dye-containing buffer (from Molecular Devices FLIPR Calcium 4 Assay kit, cat# R8141) was added to each well. Cells were then left in the dark at room temperature for 1.5-2 hours. Cell plates were then placed in the FLIPR TETRA (Molecular Devices, CA, USA). Test compounds and agonists were added to wells using the liquid handling capability of the FLIPR TETRA. Calcium responses of the cells were monitored by fluorescence readout of dye signal. Test compounds in saline (130 mM NaCl, 17 g/L sucrose, 1.8 g/L glucose, 8.8 mM HEPES, 3 mM KCl, 0.60 mM MgCl, 1.0 mM CaCl2; adjust to pH 7.4 using NaOH; 0.03% BSA added on the day of the experiment), or vehicle control in saline, were pre-incubated at the desired final concentrations in the dark at room temperature for 2 or 30 minutes with cells already containing the above mentioned dye buffer (dye solution was diluted 1:1 in culture wells with saline containing 2× the final concentration of test compound). […] Another agonist was protons via a low pH solution (saline solution described above plus 10 mM citric acid buffered to pH 5.7 with HCl instead of buffering to a neutral pH with NaOH as done for normal saline). Compounds were tested at various concentration ranges, depending upon potency of compound. After the 2 minute or 30 minute compound pre-treatment, treatment solution was then added to cells by adding a volume of treatment solution equal to the pretreatment solution already on the cells.

hVR1 [2] = target: T1, hVR1; assay: Calcium uptake assay (FLIPR), inhibition of low pH (proton)-induced calcium influx; settings: agonist protons, low pH solution pH 5.7; cells expressing hVR1
Method: as §1, §2
as §3, with “compound). Compound IC50 experiments were run using an agonist concentration at or near the EC50 of the agonist.” for “compound).”, “cells. […]” for “cells.”

hVR1 [3] = target: T1, hVR1; assay: Determination of pA2 values against capsaicin stimulation (Ca2+ imaging, Schild analysis)
Method: Changes in the fluorescence signal (λex=470-495 nm, λem=515-575 nm) are monitored throughout the experiment before agonist addition and for at least 2 min after agonist addition (enough time for the fluorescence response to reach and then decline from the absolute maximum, agonist-induced signal attained). For each well, final relative fluorescence units (RFUs) are calculated as the difference between the maximum fluorescence signal obtained in the experiment after agonist addition and the signal level seen at baseline before agonist, but after antagonist, addition (the absolute minimum level of fluorescence signal observed in the 10 seconds prior to agonist addition). […] Data are fit to an ideal curve utilizing the 4-parameter sigmoid curve-fit function in GraphPad Prism software (version 4, GraphPad Software, Inc., San Diego, Calif., USA) from which an EC50 value is obtained. […] For each antagonist, at least three concentrations are tested. Dose Ratio values are then used to make a standard Schild plot—log [antagonist concentration] plotted against log [DR−1], see Kenakin reference above for theoretical background and method. A linear regression curve-fit is then performed on these plotted points. […] If these conditions are not met, then the antagonist is rerun in a pA2 assay using different antagonist concentrations until the above conditions are met.

In the case of `CC(C)(c1ccc2c(n1)CC[C@H](C(=O)Nc1cnc3c(c1)COCC3)C2)C(F)(F)F` (single isomer, unassigned) [Compound 19], the IC50 (hVR1 [1]) is reported as 9 nM, the IC50 (hVR1 [2]) is reported as 67 nM and the Kb (hVR1 [3]) is reported as 17 nM.
For `C[C@@H](NC(=O)[C@H]1CCc2nc(C(C)(C)C(F)(F)F)ccc2C1)c1ccc2[nH]ncc2c1` [Compound 12, (S)-2-(2,2,2-Trifluoro-1,1-dimethyl-ethyl)-5,6,7,8-tetrahydro-quinoline-6-carboxylic acid [(R)-1-(1H-indazol-5-yl)-ethyl]-amide], the IC50 (hVR1 [1]) was 2 nM, the IC50 (hVR1 [2]) was 6 nM and the Kb (hVR1 [3]) was 0.208 nM.
For `CC1(C(=O)Nc2cnc3sc(CO)nc3c2)CCc2nc(C(C)(C)C(F)(F)F)ccc2C1` (centres unmarked) [Compound 24, 6-Methyl-2-(2,2,2-trifluoro-1,1-dimethyl-ethyl)-5,6,7,8-tetrahydro-quinoline-6-carboxylic acid (2-hydroxymethyl-thiazolo[5,4-b]pyridin-6-yl)-amide], the IC50 (hVR1 [2]) was 121 nM and the Kb (hVR1 [3]) was 69.2 nM.
`CC(C)(C)c1ccc2c(c1)OC(C(=O)Nc1cnc3sc(CO)nc3c1)CO2` (centres unmarked) [Compound 8, 7-tert-Butyl-2,3-dihydro-benzo[1,4]dioxine-2-carboxylic acid (2-hydroxymethyl-thiazolo[5,4-b]pyridin-6-yl)-amide] was tested, and the IC50 (hVR1 [2]) was 8 nM and the Kb (hVR1 [3]) was 14.5 nM.
`CC(C)(c1ccc2c(n1)CC[C@@H](C(=O)Nc1cnc3c(c1)COCC3)C2)C(F)(F)F` (single isomer, unassigned) [Compound 18] was tested, and the IC50 (hVR1 [1]) was 6 nM, the IC50 (hVR1 [2]) was 18 nM and the Kb (hVR1 [3]) was 32 nM.
`CC(C)(c1ccc2c(n1)CC[C@@H](C(=O)Nc1cnc3ccccc3c1)C2)C(F)(F)F` [Compound 21, (R)-2-(2,2,2-Trifluoro-1,1-dimethyl-ethyl)-5,6,7,8-tetrahydro-quinoline-6-carboxylic acid quinolin-3-ylamide] showed an IC50 (hVR1 [1]) of 33 nM, an IC50 (hVR1 [2]) of 40 nM and a Kb (hVR1 [3]) of 22.9 nM.
For `CC(=O)N1CCc2ccc(NC(=O)[C@@H]3CCc4nc(C(C)(C)C(F)(F)F)ccc4C3)cc21` [Compound 23, (R)-2-(2,2,2-Trifluoro-1,1-dimethyl-ethyl)-5,6,7,8-tetrahydro-quinoline-6-carboxylic acid (1-acetyl-2,3-dihydro-1H-indol-6-yl)-amide], the IC50 (hVR1 [1]) was 2 nM, the IC50 (hVR1 [2]) was 9 nM and the Kb (hVR1 [3]) was 5.91 nM.
`CC(NC(=O)C1CN(C)c2cc(C(F)(F)F)ccc2O1)c1ccc2[nH]ncc2c1` (mixture of isomers) [Compound 9, 4-Methyl-6-trifluoromethyl-3,4-dihydro-2H-benzo[1,4]oxazine-2-carboxylic acid [1-(1H-indazol-5-yl)ethyl]amide] showed an IC50 (hVR1 [1]) of 42 nM, an IC50 (hVR1 [2]) of 117 nM and a Kb (hVR1 [3]) of 34.7 nM.
`O=C(NCc1ccnc2ccccc12)C1=Cc2cc(OC(F)(F)F)ccc2OC1` [Compound 4, 6-Trifluoromethoxy-2H-chromene-3-carboxylic acid (quinolin-4-ylmethyl)-amide] was tested, and the IC50 (hVR1 [2]) was 108 nM.
`CC(C)(C)c1ccc2c(c1)OCC(C(=O)NCc1ccnc3ccccc13)O2` (centres unmarked) [Compound 1, 6-tert-butyl-N-(quinolin-4-ylmethyl)-2,3-dihydrobenzo[b][1,4]dioxine-2-carboxamide] was tested, and the IC50 (hVR1 [1]) was 36 nM and the IC50 (hVR1 [2]) was 240 nM.
Compound `O=C(Nc1cnc2sc(CO)nc2c1)[C@H]1COc2cc(C(F)(F)F)ccc2O1` [Compound 16, (R)-6-Trifluoromethyl-2,3-dihydro-benzo[1,4]dioxine-2-carboxylic acid (2-hydroxymethyl-thiazolo[5,4-b]pyridin-6-yl)-amide] has an IC50 (hVR1 [2]) of 571 nM and a Kb (hVR1 [3]) of 422 nM.
Compound `C[C@@H](NC(=O)[C@@H]1CCc2nc(C(C)(C)C(F)(F)F)ccc2C1)c1ccc2[nH]ncc2c1` [Compound 11, (R)-2-(2,2,2-Trifluoro-1,1-dimethyl-ethyl)-5,6,7,8-tetrahydro-quinoline-6-carboxylic acid [(R)-1-(1H-indazol-5-yl)-ethyl]-amide] has an IC50 (hVR1 [1]) of 9 nM, an IC50 (hVR1 [2]) of 23 nM and a Kb (hVR1 [3]) of 1.79 nM.
Compound `CC(C)(c1ccc2c(n1)CC[C@@H](C(=O)Nc1cnc3sc(CO)nc3c1)C2)C(F)(F)F` [Compound 15, (R)-2-(2,2,2-Trifluoro-1,1-dimethyl-ethyl)-5,6,7,8-tetrahydro-quinoline-6-carboxylic acid (2-hydroxymethyl-thiazolo[5,4-b]pyridin-6-yl)-amide] has an IC50 (hVR1 [1]) of 19 nM, an IC50 (hVR1 [2]) of 18 nM and a Kb (hVR1 [3]) of 5.05 nM.
`O=C(NCc1ccnc2ccccc12)C1=Cc2cc(Br)ccc2OC1` [Compound 3, 6-Bromo-2H-chromene-3-carboxylic acid (quinolin-4-ylmethyl)-amide] gave an IC50 (hVR1 [2]) of 128 nM.
Work on `O=C(NCc1ccnc2ccccc12)C1=Cc2cc(Cl)ccc2OC1` [Compound 2, 6-Chloro-2H-chromene-3-carboxylic acid (Quinolin-4-ylmethyl)-amide] yielded an IC50 (hVR1 [2]) of 143 nM.
Work on `CC(NC(=O)[C@H]1COc2cc(C(C)(C)C)ccc2O1)c1ccc2[nH]ncc2c1` (single isomer, unassigned) [Compound 7] yielded an IC50 (hVR1 [1]) of 29 nM, an IC50 (hVR1 [2]) of 226 nM and a Kb (hVR1 [3]) of 16.1 nM.
